Test [1] relates to streptozotocin-induced diabetic mice. Put plainly: Blood glucose level (BS) in streptozotocin-induced diabetic mice. It counts as in vivo, C57BL/6J male mice. The protocol:
9-week-old C57BL/6J male mice were purchased and familiarized with an animal facility for 1 week. 200 mg/kg of streptozotocin (streptozotocin; STZ) was administered […] into the peritoneal cavity of 10-week-old mice to prepare streptozotocin-induced diabetic mice (hereinafter also referred to as “STZ administration week 0”). One week after the administration of streptozotocin, blood was collected from the tail vein of the mice, and the blood glucose level (BS) was measured using an automatic blood glucose measuring device (product name: Medisafe (trademark) Mini GR-102, made by Terumo (Co)). Mice having a blood glucose level of 400 mg/dL or more were determined to be diabetic mice.
The SMTP-44D groups, the edaravone group, and the pregabalin group were administered SMTP-44D (0.3 mg/kg, 3 mg/kg, or 30 mg/kg doses, respectively), edaravone (10 mg/kg dose), or pregabalin (10 mg/kg dose) into the peritoneal cavity once a day for 3 consecutive weeks from the day following the first week to the fourth week after STZ administration.
For the above-mentioned STZ group, SMTP-44D groups, edaravone group, pregabalin group, and control group mice, the following measurements were conducted every week from the 0th week, which began on the day when streptozotocin (STZ) was administered, to the 4th week (that is, a total of five times). As algesia tests, the following von Frey test and hot plate test were conducted, and hind plantar blood flow, body weight (BW), and blood glucose level (BS) were measured using the above-mentioned automatic blood glucose measure device. Note, for example, the 0th week represents the 0th day. That is, the measurements were conducted on the 0th, 7th, 14th, 21st, and 28th days.

The subject of test [2] is diabetic nephropathy model mice. The test is described as follows: Serum creatinine. The conditions noted are these: 30 mg/kg i.p. once every two days for 10 weeks; 16 weeks old.
Test [3] has the same test system. Put plainly: Urine volume (24 h, metabolic cage). It is filed as in vivo, Male db/db mice. The conditions noted are these: 30 mg/kg i.p. once every two days for 10 weeks; 16 weeks old; 24 h urine.
The nature of test [4]: Body weight in diabetic nephropathy model mice. The conditions noted are these: 30 mg/kg i.p. once every two days for 10 weeks; 16 weeks old. It is filed as in vivo, Male db/db mice.
For test [5], the system named is diabetic nephropathy model mice. Put plainly: Blood glucose level in diabetic nephropathy model mice. It is filed as in vivo, Male db/db mice. The conditions noted are these: 30 mg/kg i.p. once every two days for 10 weeks; 16 weeks old.
Test [6] shares this test system. Put plainly: Urinary albumin. The conditions noted are these: 30 mg/kg i.p. once every two days for 10 weeks; 16 weeks old.
[7] abbreviates: 10 mg/kg i.p. once a day, 1st week (before dosing).
Setting [8] is: 10 mg/kg i.p. once a day, 2nd week.
Where [9] appears, read: 10 mg/kg i.p. once a day, 4th week.

For `CC1=NN(c2ccccc2)C(=O)C1` [Edaravone, edaravone], the “BS (blood glucose level)” value was found to be 221.0 ± 7.3 mg/dL in test [1] (10 mg/kg i.p. once a day, 0th week (before dosing), listed as edaravone); 566.0 ± 32.6 mg/dL in test [1] (setting [7]); 566.0 ± 32.6 mg/dL in test [1] (10 mg/kg i.p. once a day, 1st week (before dosing), listed as edaravone); 567.5 ± 28.0 mg/dL in test [1] (setting [8]); 567.5 ± 28.0 mg/dL in test [1] (10 mg/kg i.p. once a day, 2nd week, listed as edaravone); 617.7 ± 373.3 mg/dL in test [1] (10 mg/kg i.p. once a day, 3rd week). The “BS (blood glucose level)” value in test [1] (10 mg/kg i.p. once a day, 3rd week, listed as edaravone) was 617.7 ± 37.3 mg/dL; in test [1] (setting [9]), 565.3 ± 35.1 mg/dL; in test [1] (10 mg/kg i.p. once a day, 4th week, listed as edaravone), 565.3 ± 35.1 mg/dL.
On to `CC(C)C[C@H](CN)CC(=O)O` [Pregabalin, pregabalin], for which the “BS (blood glucose level)” value is 192.2 ± 5.3 mg/dL in test [1] (10 mg/kg i.p. once a day, 0th week (before dosing)); 192.2 ± 5.3 mg/dL in test [1] (10 mg/kg i.p. once a day, 0th week (before dosing), listed as pregabalin); 562.7 ± 25.6 mg/dL in test [1] (setting [7]); 562.7 ± 25.6 mg/dL in test [1] (10 mg/kg i.p. once a day, 1st week (before dosing), listed as pregabalin); 639.1 ± 44.7 mg/dL in test [1] (setting [8]); 639.1 ± 44.7 mg/dL in test [1] (10 mg/kg i.p. once a day, 2nd week, listed as pregabalin). Besides, the “BS (blood glucose level)” value in test [1] (10 mg/kg i.p. once a day, 3rd week, listed as pregabalin) was determined as 657.2 ± 38.7 mg/dL; in test [1] (setting [9]), 582.3 ± 38.2 mg/dL; in test [1] (10 mg/kg i.p. once a day, 4th week, listed as pregabalin), 582.3 ± 38.2 mg/dL.
In test [2], `CC(C)=CCCC(C)=CCCC1(C)Oc2c(c(O)cc3c2CN(C(C(=O)O)c2ccc(O)cc2)C3=O)CC1O` (stereo not shown) [SMTP-44D] displayed a Serum creatinine of 0.4 ± 0.1 mg/dL. The “BS (blood glucose level)” value in test [1] (30 mg/kg i.p. once a day, 0th week (before dosing)) amounted to 203.5 ± 5.5 mg/dL; in test [1] (30 mg/kg i.p. once a day, 1st week (before dosing)) it was 535.5 ± 28.7 mg/dL; in test [1] (30 mg/kg i.p. once a day, 2nd week) it was 597.3 ± 44.8 mg/dL; in test [1] (30 mg/kg i.p. once a day, 3rd week), 638.7 ± 34.2 mg/dL; in test [1] (30 mg/kg i.p. once a day, 4th week), 580.3 ± 42.9 mg/dL. Besides, in test [3], the Urine volume stood at 1268.3 ± 137.4 µL. The “Body weight compared to the DN group” value in test [4] was “No significant changes”. For the same compound, in test [5], the “Blood glucose levels compared to the DN group” value is “No significant changes”. The compound further showed a Urinary albumin in test [6] of 0.3 ± 0.1 mg/h/kg.

Source of the values: patent publication US20220218664A1, “DRUG AND METHOD FOR TREATING OR PREVENTING COMPLICATIONS FROM DIABETES, USING SAID DRUG” (TMS Co., Ltd., priority 2019, published 2022).
